Data as given in ChEMBL document CHEMBL4364298.
Active and inactive are the calls of the source. The rule behind the calls is not given here.

Molecular target: Histamine H1 receptor (Homo sapiens) (UniProt P35367)
Test: Antagonist activity at H1R in human HeLa cells assessed as inhibition of histamine-induced intracellular calcium mobilization at 10 times Ki incubated for 18 to 20 hrs prior to Fluo-4NW dye addition for 1 hr followed by compound washout and subsequent stimulation with histamine at 5 mins interval and measured up to 2 hrs by fluorescence assay
Type: functional, cell-based

Sequence of Histamine H1 receptor (Homo sapiens) (P35367 whole entry): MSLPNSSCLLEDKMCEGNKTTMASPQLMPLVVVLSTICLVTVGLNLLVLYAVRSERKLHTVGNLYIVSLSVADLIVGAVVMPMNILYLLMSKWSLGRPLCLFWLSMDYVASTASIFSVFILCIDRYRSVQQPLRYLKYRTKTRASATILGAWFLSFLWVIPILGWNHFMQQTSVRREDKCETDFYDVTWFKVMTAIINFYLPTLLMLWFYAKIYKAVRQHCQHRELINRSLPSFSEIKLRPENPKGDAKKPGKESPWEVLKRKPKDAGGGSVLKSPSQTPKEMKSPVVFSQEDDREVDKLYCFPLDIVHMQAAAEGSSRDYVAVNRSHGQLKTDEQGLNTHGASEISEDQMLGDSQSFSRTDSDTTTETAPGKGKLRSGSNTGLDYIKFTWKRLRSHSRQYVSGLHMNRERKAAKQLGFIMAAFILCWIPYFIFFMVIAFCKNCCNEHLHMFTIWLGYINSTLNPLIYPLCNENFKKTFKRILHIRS

inhibition | SMILES
100% | Clc1ccc2c(c1)CCc1cccnc1C2=C1CCN(CC2CCC2)CC1
100% | Clc1ccc2c(c1)CCc1cccnc1C2=C1CCN(CC2CC2)CC1
100% | Clc1ccc2c(c1)CCc1cccnc1C2=C1CCN(CC2CCCC2)CC1
Active | Cc1cncc(CN2CCC(=C3c4ccc(Cl)cc4CCc4cccnc43)CC2)c1
